Among the test systems are CAKI-1 renal; HCT-116 colon; HL-60(TB) leukemia; MDA-MB-231 breast; MOLT-4 leukemia; NCI-H226 lung; NCI-H522 lung; PC-3 prostate; SK-MEL-2 melanoma; SR leukemia.
What all share (test): inhibition of tumour cell growth, NCI panel, 48 h

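Briefly, cells in 96-well plates were exposed to five compound concentrations for 48 h, and endpoints were estimated by linear interpolation. GI50: concentration for 50% inhibition of growth. TGI: concentration producing complete growth inhibition.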 Some results are limits rather than exact numbers.

On to `COc1cc2nc(-c3cc(F)ccc3O)nc(N[C@@H]3CNC[C@H]3C(C)(C)O)c2cc1OC`, for which the GI50 in the assay on CAKI-1 renal is 1 µM; with HCT-116 colon it was 1.35 µM; with HL-60(TB) leukemia, 1.78 µM; in the assay with MDA-MB-231 breast, 1.23 µM; in the assay on MOLT-4 leukemia, 2.09 µM; with NCI-H226 lung, 1.48 µM. Moreover, the GI50 in the assay on NCI-H522 lung was 1.67 µM; in the assay on PC-3 prostate, 2.09 µM; in the assay on SK-MEL-2 melanoma it was 1.59 µM; in the assay on SR leukemia it was 1.27 µM. The TGI in the assay on CAKI-1 renal was determined as 2.54 µM; in the assay on HCT-116 colon, 2.75 µM; in the assay on HL-60(TB) leukemia, 4.2 µM; in the assay with MDA-MB-231 breast, 2.8 µM; with MOLT-4 leukemia, 4.7 µM; in the assay on NCI-H226 lung, 4.38 µM. For the same molecule, the TGI with NCI-H522 lung amounted to 3.11 µM; in the assay with PC-3 prostate it was 5.7 µM; in the assay on SK-MEL-2 melanoma, 3.12 µM; in the assay with SR leukemia, 3.62 µM.

Take `c1ccc2c(c1)Nc1ccncc1S2`: the GI50 in the assay on CAKI-1 renal is 11.4 µM; with HCT-116 colon, 20.5 µM; with HL-60(TB) leukemia it was 19.4 µM; in the assay with MDA-MB-231 breast it was 26.9 µM; in the assay with MOLT-4 leukemia it was 31.1 µM; with NCI-H226 lung, 17.1 µM. The GI50 was 11.8 µM in the assay on NCI-H522 lung, 27 µM in the assay with PC-3 prostate, 13.6 µM in the assay on SK-MEL-2 melanoma and 13.4 µM with SR leukemia. Besides, the TGI was 56 µM in the assay on CAKI-1 renal; above 100 µM with HCT-116 colon; 75.4 µM in the assay on HL-60(TB) leukemia; above 100 µM with MDA-MB-231 breast; above 100 µM in the assay with MOLT-4 leukemia; above 100 µM in the assay with NCI-H226 lung. The TGI with NCI-H522 lung is 65.7 µM; in the assay on PC-3 prostate, above 100 µM; in the assay with SK-MEL-2 melanoma, 36.7 µM; in the assay on SR leukemia, 50.3 µM.

Regarding `CC1(C)CC(=O)C2=C(C1)OC(N)=C(c1nc(-c3ccccc3)cs1)C2c1ccc(Br)cc1` (stereo not given), the GI50 with CAKI-1 renal is above 150 µg/mL; in the assay on HCT-116 colon it was 55.7 µg/mL; with HL-60(TB) leukemia, 69.2 µg/mL; in the assay with MDA-MB-231 breast, 59.1 µg/mL; in the assay on MOLT-4 leukemia it was 53.5 µg/mL; in the assay with NCI-H226 lung it was 22.8 µg/mL. For the same molecule, the GI50 is 42.1 µg/mL in the assay on NCI-H522 lung, 50.9 µg/mL in the assay with PC-3 prostate, 79 µg/mL in the assay on SK-MEL-2 melanoma and 112 µg/mL in the assay with SR leukemia. The TGI in the assay on CAKI-1 renal is above 150 µg/mL; with HCT-116 colon, above 150 µg/mL; in the assay on HL-60(TB) leukemia it was above 150 µg/mL; with MDA-MB-231 breast, above 150 µg/mL; in the assay on MOLT-4 leukemia, above 150 µg/mL; in the assay with NCI-H226 lung it was 96.8 µg/mL. Moreover, the TGI in the assay with NCI-H522 lung, in the assay on PC-3 prostate, in the assay on SK-MEL-2 melanoma and in the assay on SR leukemia was above 150 µg/mL throughout.

On to `CCCCCCNC(=O)Oc1ccc(/C(=C(\C)c2ccc(Cl)cc2)c2ccc(OCCN3CCCCC3)cc2)cc1`, for which the GI50 in the assay on CAKI-1 renal was 4.03 µM; in the assay on HCT-116 colon it was 0.962 µM; in the assay with HL-60(TB) leukemia, 1.17 µM; with MDA-MB-231 breast, 5.35 µM; in the assay on MOLT-4 leukemia, 1.47 µM; with NCI-H226 lung, 5.31 µM. Besides, the GI50 is 6.14 µM with NCI-H522 lung, 2.23 µM in the assay with PC-3 prostate, 6.22 µM with SK-MEL-2 melanoma and 0.727 µM in the assay on SR leukemia. Moreover, the TGI with CAKI-1 renal amounted to 8.25 µM; in the assay with HCT-116 colon it was 4.78 µM; in the assay on HL-60(TB) leukemia, 4.88 µM; in the assay with MDA-MB-231 breast it was 10.2 µM; in the assay with MOLT-4 leukemia, 23.3 µM; in the assay on NCI-H226 lung, 11.8 µM. The TGI in the assay with NCI-H522 lung turned out to be 13 µM; in the assay with PC-3 prostate, 14.1 µM; in the assay with SK-MEL-2 melanoma, 12.8 µM; with SR leukemia, 2.14 µM.

Consider `CCC1(O)C(=O)OCc2c1cc1n(c2=O)Cc2cc3c(NC(=O)CN)cccc3nc2-1` (stereo not given), for which the GI50 was 0.205 µM with CAKI-1 renal; 1.01 µM with HCT-116 colon; 0.129 µM in the assay on HL-60(TB) leukemia; 58.1 µM with MDA-MB-231 breast; 0.0438 µM in the assay on MOLT-4 leukemia; 0.385 µM with NCI-H226 lung. For the same molecule, the GI50 in the assay with NCI-H522 lung is 0.387 µM; in the assay with PC-3 prostate it was 2.72 µM; with SK-MEL-2 melanoma it was 9.74 µM; in the assay on SR leukemia, 0.0262 µM. The TGI in the assay on CAKI-1 renal is 8.37 µM; in the assay on HCT-116 colon it was above 62.5 µM; with HL-60(TB) leukemia, 1.64 µM; in the assay with MDA-MB-231 breast it was above 100 µM; in the assay on MOLT-4 leukemia, 1.13 µM; in the assay with NCI-H226 lung it was 4.29 µM. In addition, the TGI in the assay with NCI-H522 lung is 9.9 µM; with PC-3 prostate it was above 100 µM; in the assay on SK-MEL-2 melanoma, 41.1 µM; in the assay on SR leukemia, 0.183 µM.

Regarding `Nc1nc(Nc2ccccc2SSc2ccccc2Nc2nc(N)nc(C(Cl)(Cl)Cl)n2)nc(C(Cl)(Cl)Cl)n1`, the GI50 in the assay on CAKI-1 renal is 3.01 µM; with HCT-116 colon it was 4.82 µM; with HL-60(TB) leukemia, 2.55 µM; in the assay with MDA-MB-231 breast it was 3.13 µM; with MOLT-4 leukemia, 3.22 µM; with NCI-H226 lung, 3.49 µM. The GI50 in the assay on NCI-H522 lung is 2.6 µM; in the assay with PC-3 prostate, 3.56 µM; in the assay with SK-MEL-2 melanoma, 13.2 µM; in the assay with SR leukemia, 1.63 µM. Further, the TGI is 10.5 µM in the assay with CAKI-1 renal; 16.9 µM in the assay with HCT-116 colon; 12.1 µM in the assay on HL-60(TB) leukemia; 10.7 µM with MDA-MB-231 breast; 18.1 µM in the assay on MOLT-4 leukemia; 15.9 µM in the assay on NCI-H226 lung. For the same molecule, the TGI in the assay on NCI-H522 lung was determined as 10.3 µM; in the assay on PC-3 prostate, 18.6 µM; with SK-MEL-2 melanoma, 33.9 µM; in the assay on SR leukemia, 3.76 µM.

With `C#CCNC(=O)[C@H](CC)[C@H]1CC[C@H](C)[C@H]([C@@H](C)[C@H](O)[C@H](C)C(=O)[C@H](CC)C2O[C@]3(C=CC(=O)[C@]4(CC[C@@](C)([C@H]5CC[C@](O)(CC)[C@H](C)O5)O4)O3)[C@H](C)C[C@@H]2C)O1` (stereo not given in full), the GI50 with CAKI-1 renal is 1.78 µM; in the assay with HCT-116 colon, 2.43 µM; in the assay with HL-60(TB) leukemia, 2.28 µM; in the assay on MDA-MB-231 breast, 1.92 µM; in the assay with MOLT-4 leukemia it was 2.44 µM; in the assay on NCI-H226 lung, 2.94 µM. Moreover, the GI50 in the assay with NCI-H522 lung was 1.87 µM; in the assay with PC-3 prostate, 2 µM; in the assay with SK-MEL-2 melanoma it was 2.44 µM; with SR leukemia, 1.61 µM. Besides, the TGI with CAKI-1 renal was 7.02 µM; in the assay with HCT-116 colon, 7.66 µM; in the assay on HL-60(TB) leukemia it was 5.45 µM; in the assay with MDA-MB-231 breast it was 5.14 µM; in the assay on MOLT-4 leukemia, 8.76 µM; with NCI-H226 lung, 22.6 µM. The TGI with NCI-H522 lung came to 5.39 µM; in the assay with PC-3 prostate it was 8.78 µM; in the assay with SK-MEL-2 melanoma, 7.31 µM; in the assay with SR leukemia, 5.37 µM.
